Results reported in US20260240851A1, “Treatment of Parkinson's Disease in a Patient Using a Glucocerebrosidase Activator” (BIAL - R&D Investments, S.A., priority 2023, published 2026).

Assays:
[1] = LTI-291-001: CNS (NeuroCart) assessments; assay type: in vivo, human; details: single doses 3-90 mg, healthy subjects
Procedure: The pharmacodynamic evaluations consisted of a battery of CNS (NeuroCart®) assessments, including Saccadic Eye Movements, Smooth Pursuit Eye Movements, Adaptive Tracking, Body Sway, Visual Verbal Learning Test, and EEG. GluCer was measured in plasma and PBMCs as a biomarker of pharmacological effect.

[2] = LTI-291-002: CNS (NeuroCart) assessments; assay type: in vivo, human
Procedure: (§1) This study was a phase 1, randomized, double-blind, placebo-controlled, multiple ascending dose study of Compound A in 4 cohorts of middle-aged to elderly healthy participants (aged 52 to 75 years). […] A total of 39 healthy subjects were enrolled in 4 sequential cohorts. Subjects in each cohort received once-daily oral doses of 3 mg (n=7), 10 mg (n=8), 30 mg (n=8), or 60 mg (n=8) Compound A or placebo (n=8) for 14 days. Pharmacokinetic parameters were determined for each dose at Day 1, Day 7, and Day 14. Cerebrospinal fluid samples for Compound A concentrations were measured before the first dose and 4 hours after the last dose for each dose level. GluCer, glucosyl sphingosine (GluSph), and lactosyl-ceramide (LacCer) were measured in plasma, PBMCs, and CSF as biomarkers of pharmacological effects. Pharmacodynamic measurements consisted of battery of CNS (NeuroCart®) assessments including Saccadic Eye Movements, Smooth Pursuit Eye Movements, Adaptive Tracking, Body Sway, Visual Verbal Learning Test, and pharmaco-EEG.

[3] = LTI-291-002: safety and tolerability; assay type: in vivo, human
Procedure: as §1

GCase = experiment: Phase 2 study: GCase activity in whole blood (dried blood spot, FIA-MS/MS); assay type: in vivo, human; details: vs placebo
Procedure: In addition, the PD biomarkers and GCase activity in whole blood samples are measured at baseline and week 78 (preferably baseline and weeks 4, 26, 52 and 78). This may include biomarkers of lysosomal activity (e.g., glucosylsphingosine (GluSph) and/or glucosylceramide (GluCer)). Methods of measuring lysosomal activity (e.g., GluSph and/or GluCer) are described above. A method of measuring GCase activity is described below. Magnetic resonance imagining (MRI) scans are performed at baseline and week 78 for a cohort of GBA-PD subjects.
The preferred method of measuring GCase activity in whole blood is described below, and also in Totorelli, 2016, which is incorporated herein by reference:
A 5-plex cocktail assay for GCase, acid a-glucosidase (GAA), galactocerebrosidase (GALC), a-galactosidase A (GLA), and a-L-iduronidase (IDUA) activity is prepared. Vials containing the substrate (S) and internal standards (IS) for GCase and GAA are reconstituted with methanol and transferred to the GALC S+IS vial followed by evaporation. The GLA S+IS vial is reconstituted with 1.8 mL of 96 g/L sodium taurocholate in water and then transferred to the dry GALC S+IS vial, which is then heated to 60° C. to dissolve all solids. […]

[4] = BIA 28-6156-105: safety and tolerability

Structure (SMILES): CCCCCO[C@H]1CC[C@H](NC(=O)c2cnn3c(C)cc(C)nc23)CC1 [Compound A, 5,7-dimethyl-N-((1S*,4S)-4-(pentyloxy)cyclohexyl)pyrazolo[1,5-a]pyrimidine-3-carboxamide]
- effects on CNS (Neurocart) tests [1]: no dose-dependent effects
- EEG Alpha-power Pz-Oz, eyes closed ([2]; 3 mg vs placebo): significant decrease
- effects on CNS (Neurocart) tests ([2]; 3-60 mg daily for 14 days): no dose-dependent effects
- saccadic inaccuracy ([2]; 10 and 30 mg groups vs placebo): significant increase
- saccadic peak velocity or reaction time ([2]; vs placebo): No changes
- Myalgia, subjects ([3]; 3 mg dose group): 14%
- Somnolence, subjects ([3]; 3 mg dose group): 14%
- Myalgia, subjects ([3]; 10 mg dose group): 0%
- Somnolence, subjects ([3]; 10 mg dose group): 0%
- Myalgia, subjects ([3]; 30 mg dose group): 13%
- Somnolence, subjects ([3]; 30 mg dose group): 0%
- Myalgia, subjects ([3]; 60 mg dose group): 38%
- Somnolence, subjects ([3]; 60 mg dose group): 50%
- creatine kinase abnormalities ([3]; 60 mg group): No clinically significant creatine kinase abnormalities
- deaths, SAEs, severe AEs, discontinuations due to AEs ([3]; 3-60 mg daily for 14 days): No deaths, other SAEs, severe AEs, or discontinuations due to AEs
- vital signs, laboratory safety assessments, ECG parameters ([3]; 14 days): no clinically significant safety observations
- AE back pain, subjects ([3]; all Compound A groups): 13%
- AE headache, subjects ([3]; all Compound A groups): 39%
- AE myalgia, subjects ([3]; all Compound A groups): 16%
- AE somnolence, subjects ([3]; all Compound A groups): 16%
- Mean change in GCase activity in whole blood samples (GCase): higher
- laboratory values considered related to Compound A ([4]; after 150 mg Compound A): increased ALT and increased GGT in 1 subject
- deaths or other SAEs ([4]; in vivo): No deaths or other SAEs
- TEAEs considered related to Compound A 150 mg ([4]; reported in 2 subjects): 4 of 90 TEAEs
